For assay [1], the system named is PKB Ser473 phosphorylation in Rat1-myr-HA-p110 beta cells. Nature of the assay: Reverse protein array, PKB Ser473 phosphorylation in Rat1-myr-HA-p110 beta cells. The format is cell-based. The conditions noted are these: Rattus norvegicus, 0.5 h, 30 minutes compound incubation, read-out: p-PKB/IC50_beta.
Assay [2] deals with PKB Ser473 phosphorylation in Rat1-myr-HA-p110 delta cells. In words: Reverse protein array, PKB Ser473 phosphorylation in Rat1-myr-HA-p110 delta cells. Format: cell-based. The conditions noted are these: Rattus norvegicus, 0.5 h, 30 minutes compound incubation, read-out: p-PKB/IC50_delta.

In the case of `COc1ccc(-c2ccc3ncc4c(c3c2)n(-c2cccnc2OC)c(=O)n4C)cn1` [Example 1.1, 1-(2-Methoxy-pyridin-3-yl)-8-(6-methoxy-pyridin-3-yl)-3-methyl-1,3-dihydro-imidazo[4,5-c]quinolin-2-one], the IC50 in assay [1] amounted to 65 nM; in assay [2], 53.3 nM. With `COc1ncccc1-n1c(=O)n(C)c2cnc3ccc(-c4cnc(N)c(C(F)(F)F)c4)cc3c21` [Example 1.3, 8-(6-Amino-5-trifluoromethyl-pyridin-3-yl)-1-(2-methoxy-pyridin-3-yl)-3-methyl-1,3-dihydro-imidazo[4,5-c]quinolin-2-one], the figures for the IC50 in assay [1] and in assay [2] were 13.9 nM and 15.5 nM, respectively. For `CNc1ccc(-c2ccc3ncc4c(c3c2)n(-c2cccnc2OC)c(=O)n4C)cn1` [Example 1.4, 1-(2-Methoxy-pyridin-3-yl)-3-methyl-8-(6-methylamino-pyridin-3-yl)-1,3-dihydro-imidazo[4,5-c]quinolin-2-one] the same measures were 9.81 nM and 29.4 nM.

For `CCOc1ccc(-c2ccc3ncc4c(c3c2)n(-c2cccnc2OC)c(=O)n4C)cn1` [Example 1.5, 8-(6-Ethoxy-pyridin-3-yl)-1-(2-methoxy-pyridin-3-yl)-3-methyl-1,3-dihydro-imidazo[4,5-c]quinolin-2-one], the IC50 was found to be 38.8 nM in assay [1] and 59.6 nM in assay [2]. In the same order, the values of `COc1ncccc1-n1c(=O)n(C)c2cnc3ccc(-c4cnc5c(ccn5C)c4)cc3c21` [Example 1.7, 1-(2-Methoxy-pyridin-3-yl)-3-methyl-8-(1-methyl-1H-pyrrolo[2,3-b]pyridin-5-yl)-1,3-dihydro-imidazo[4,5-c]quinolin-2-one] are 29.6 nM and 72 nM. For `COc1ncccc1-n1c(=O)n(C)c2cnc3ccc(-c4ccc(F)nc4)cc3c21` [Example 1.8, 8-(6-Fluoro-pyridin-3-yl)-1-(2-methoxy-pyridin-3-yl)-3-methyl-1,3-dihydro-imidazo[4,5-c]quinolin-2-one] the same measures were 324 nM and 612 nM. In the same order, the values of `COc1ncccc1-n1c(=O)n(C)c2cnc3ccc(-c4cnc(N(C)C)nc4)cc3c21` [Example 1.9, 8-(2-Dimethylamino-pyrimidin-5-yl)-1-(2-methoxy-pyridin-3-yl)-3-methyl-1,3-dihydro-imidazo[4,5-c]quinolin-2-one] are 60.3 nM and 83.9 nM. Consider `CCOc1ccc(-c2ccc3ncc4c(c3c2)n(-c2cccnc2C)c(=O)n4C)cn1` [Example 2.1, 8-(6-Ethoxy-pyridin-3-yl)-3-methyl-1-(2-methyl-pyridin-3-yl)-1,3-dihydro-imidazo[4,5-c]quinolin-2-one], for which the values for the IC50 in assay [1] and in assay [2] were 18.3 nM and 96 nM, respectively. For `CNc1ncc(-c2ccc3ncc4c(c3c2)n(-c2cccnc2C)c(=O)n4C)cn1` [Example 2.2, 3-Methyl-8-(2-methylamino-pyrimidin-5-yl)-1-(2-methyl-pyridin-3-yl)-1,3-dihydro-imidazo[4,5-c]quinolin-2-one] the same measures were 14.7 nM and 20.5 nM. Consider `Cc1ncccc1-n1c(=O)n(C)c2cnc3ccc(-c4cnc5c(ccn5C)c4)cc3c21` [Example 2.14, 3-Methyl-1-(2-methyl-pyridin-3-yl)-8-(1-methyl-1H-pyrrolo[2,3-b]pyridin-5-yl)-1,3-dihydro-imidazo[4,5-c]quinolin-2-one], for which the IC50 in assay [1] is 13.1 nM; in assay [2], 61.7 nM. In the same order, the values of `CCOc1cc(-c2ccc3ncc4c(c3c2)n(-c2cccnc2C)c(=O)n4C)cnc1C` [Example 2.22, 8-(5-Ethoxy-6-methyl-pyridin-3-yl)-3-methyl-1-(2-methyl-pyridin-3-yl)-1,3-dihydro-imidazo[4,5-c]quinolin-2-one] are 22.5 nM and 75.7 nM. For `Cc1cccnc1-n1c(=O)n(C)c2cnc3ccc(-c4cnc5ccccc5c4)cc3c21` [Example 3.8, 3-Methyl-1-(3-methyl-pyridin-2-yl)-8-quinolin-3-yl-1,3-dihydro-imidazo[4,5-c]quinolin-2-one], the IC50 in assay [1] was found to be 108 nM. Same read-out and setting: the figure for `COc1ccc(-c2ccc3ncc4c(c3c2)n(-c2ncccc2C)c(=O)n4C)cn1` [Example 3.13, 8-(6-Methoxy-pyridin-3-yl)-3-methyl-1-(3-methyl-pyridin-2-yl)-1,3-dihydro-imidazo[4,5-c]quinolin-2-one] is 945 nM. For `COc1ccc(-c2ccc3ncc4c(c3c2)n(-c2cccnc2)c(=O)n4C)cc1OC` [Example 5.2, 8-(3,4-Dimethoxy-phenyl)-3-methyl-1-pyridin-3-yl-1,3-dihydro-imidazo[4,5-c]quinolin-2-one], the IC50 in assay [1] came out at 50.3 nM; in assay [2] it was 74.3 nM. In the same order, the values of `COc1ccc(-c2ccc3ncc4c(c3c2)n(-c2cccnc2)c(=O)n4C)cn1` [Example 5.4, 8-(6-Methoxy-pyridin-3-yl)-3-methyl-1-pyridin-3-yl-1,3-dihydro-imidazo[4,5-c]quinolin-2-one] are 152 nM and 223 nM. For `CCNc1cc(-c2ccc3ncc4c(c3c2)n(-c2ccc(F)nc2C)c(=O)n4C)cnc1CO` [Example 7.9, 8-(5-Ethylamino-6-hydroxymethyl-pyridin-3-yl)-1-(6-fluoro-2-methyl-pyridin-3-yl)-3-methyl-1,3-dihydro-imidazo[4,5-c]quinolin-2-one] the same measures were 10 nM and 41.5 nM. In the same order, the values of `CNc1cc(-c2ccc3ncc4c(c3c2)n(-c2ccc(F)nc2C)c(=O)n4C)cnc1CO` [Example 7.11, 1-(6-Fluoro-2-methyl-pyridin-3-yl)-8-(6-hydroxymethyl-5-methylamino-pyridin-3-yl)-3-methyl-1,3-dihydro-imidazo[4,5-c]quinolin-2-one] are 15.8 nM and 17.1 nM.

Consider `CNc1ncc(-c2ccc3ncc4c(c3c2)n(-c2ccc(F)nc2C)c(=O)n4C)cc1F` [Example 7.12, 8-(5-Fluoro-6-methylamino-pyridin-3-yl)-1-(6-fluoro-2-methyl-pyridin-3-yl)-3-methyl-1,3-dihydro-imidazo[4,5-c]quinolin-2-one], for which the IC50 in assay [1] stood at 13.5 nM; in assay [2], 97.8 nM. In the same order, the values of `CNc1ncc(-c2ccc3ncc4c(c3c2)n(-c2ccc(F)nc2C)c(=O)n4C)cc1C(F)(F)F` [Example 7.13, 1-(6-Fluoro-2-methyl-pyridin-3-yl)-3-methyl-8-(6-methylamino-5-trifluoromethyl-pyridin-3-yl)-1,3-dihydro-imidazo[4,5-c]quinolin-2-one] are 7.6 nM and 37.9 nM.

Regarding `CNC(=O)c1cc(-c2ccc3ncc4c(c3c2)n(-c2ccc(F)nc2C)c(=O)n4C)cnc1N` [Example 7.14, 2-Amino-5-[1-(6-fluoro-2-methyl-pyridin-3-yl)-3-methyl-2-oxo-2,3-dihydro-1H-imidazo[4,5-c]quinolin-8-yl]-N-methyl-nicotinamide], the IC50 amounted to 50.6 nM in assay [1] and 140 nM in assay [2]. For `CCOCc1cc(-c2ccc3ncc4c(c3c2)n(-c2ccc(F)nc2C)c(=O)n4C)cnc1N` [Example 7.15, 8-(6-Amino-5-ethoxymethyl-pyridin-3-yl)-1-(6-fluoro-2-methyl-pyridin-3-yl)-3-methyl-1,3-dihydro-imidazo[4,5-c]quinolin-2-one], the IC50 is 50.6 nM in assay [1] and 172 nM in assay [2]. For the compound `Cc1nc(F)ccc1-n1c(=O)n(C)c2cnc3ccc(-c4cncc(N)c4)cc3c21` [Example 7.16, 8-(5-Amino-pyridin-3-yl)-1-(6-fluoro-2-methyl-pyridin-3-yl)-3-methyl-1,3-dihydro-imidazo[4,5-c]quinolin-2-one], the figures for the IC50 in assay [1] and in assay [2] were 23.3 nM and 78.5 nM, respectively.

Consider `Cc1nc(F)ccc1-n1c(=O)n(C)c2cnc3ccc(-c4cnc(N)c(CO)c4)cc3c21` [Example 7.17, 8-(6-Amino-5-hydroxymethyl-pyridin-3-yl)-1-(6-fluoro-2-methyl-pyridin-3-yl)-3-methyl-1,3-dihydro-imidazo[4,5-c]quinolin-2-one], for which the figures for the IC50 in assay [1] and in assay [2] were 212 nM and 119 nM, respectively. With `COc1ccc(-n2c(=O)n(C)c3cnc4ccc(-c5cnc(N)c(C(F)(F)F)c5)cc4c32)c(OC)n1` [Example 8.1, 8-(6-Amino-5-trifluoromethyl-pyridin-3-yl)-1-(2,6-dimethoxy-pyridin-3-yl)-3-methyl-1,3-dihydro-imidazo[4,5-c]quinolin-2-one], the IC50 in assay [1] came out at 12.8 nM; in assay [2] it was 10.7 nM. As for `COc1ccc(-n2c(=O)n(C)c3cnc4ccc(-c5ccc6nccn6c5)cc4c32)c(OC)n1` [Example 8.10, 1-(2,6-Dimethoxy-pyridin-3-yl)-8-imidazo[1,2-a]pyridin-6-yl-3-methyl-1,3-dihydro-imidazo[4,5-c]quinolin-2-one], the IC50 in assay [2] is 412 nM. For the compound `Cc1cc(F)ncc1-n1c(=O)n(C)c2cnc3ccc(-c4cnc5c(ccn5C)c4)cc3c21` [Example 16.5, 1-(6-Fluoro-4-methyl-pyridin-3-yl)-3-methyl-8-(1-methyl-1H-pyrrolo[2,3-b]pyridin-5-yl)-1,3-dihydro-imidazo[4,5-c]quinolin-2-one], in assay [2], the IC50 was 407 nM.

For `CCNc1cc(-c2ccc3ncc4c(c3c2)n(-c2ccc(OC)nc2Cl)c(=O)n4C)cnc1C` [Example 18.1, 1-(2-Chloro-6-methoxy-pyridin-3-yl)-8-(5-ethylamino-6-methyl-pyridin-3-yl)-3-methyl-1,3-dihydro-imidazo[4,5-c]quinolin-2-one], in assay [2], the IC50 is below 4.57 nM.

`COc1ccc(-n2c(=O)n(C)c3cnc4ccc(-c5cnc(N(C)C)nc5)cc4c32)c(Cl)n1` [Example 18.3, 1-(2-Chloro-6-methoxy-pyridin-3-yl)-8-(2-dimethylamino-pyrimidin-5-yl)-3-methyl-1,3-dihydro-imidazo[4,5-c]quinolin-2-one]: the IC50 in assay [2] came to 90.7 nM.

The values are drawn from patent US20100311714A1, “1H-IMIDAZO[4,5-c]QUINOLINONE COMPOUNDS” (priority 2009, published 2010).
